Laboratory results reported in patent publication US20140205537A1, “LRRK2 INHIBITORS” (ZENOBIA THERAPEUTICS, INC., priority 2011, published 2014).

Biological target: G2019S LRRK2 (Homo sapiens, UniProt Q5S007, G2019S)
Assay: DiscoveRx KINOMEscan binding constant (Kd)
Set-up: purchased DiscoveRx (KINOMEscan service); host or cells: E. coli BL21-derived host (T7 phage) or HEK-293
Settings: numeric value
Procedure: Compounds of formulas (II), (I), (I-A), (I-B), (I-C), (I-D), (I-D-1), (I-D-2), (I-E), (I-F), (I-G), (I-H), (I-I), (I-I-1), (I-I-2), (I-J), (I-K), (I-L), (I-M), (I-N), (I-Z-1), (I-Z-2), (I-Z-2-a), (I-Z-2-b), (I-Z-2-c), (I-Z-2-d), (I-Z-3-a), (I-Z-3-b), (I-Z-3-c), or (I-Z-3-d) were tested using DiscoveRx's KINOMEscan™ technology to measure a binding constant (Kd) to wild type and G2019S LRRK2. Kinase-tagged T7 phage strains were prepared in an E. coli host derived from the BL21 strain. E. coli were grown to log-phase and infected with T7 phage and incubated with shaking at 32° C. until lysis. The lysates were centrifuged and filtered to remove cell debris. The remaining kinases were produced in HEK-293 cells and subsequently tagged with DNA for qPCR detection. Streptavidin-coated magnetic beads were treated with biotinylated small molecule ligands for 30 minutes at room temperature to generate affinity resins for kinase assays. The liganded beads were blocked with excess biotin and washed with blocking buffer (SeaBlock (Pierce), 1% BSA, 0.05% Tween 20, 1 mM DTT) to remove unbound ligand and to reduce non-specific binding. Binding reactions were assembled by combining kinases, liganded affinity beads, and test compounds in 1× binding buffer (20% SeaBlock, 0.17×PBS, 0.05% Tween 20, 6 mM DTT). All reactions were performed in polystyrene 96-well plates in a final volume of 0.135 ml. The assay plates were incubated at room temperature with shaking for 1 hour and the affinity beads were washed with wash buffer (lx PBS, 0.05% Tween 20). The beads were then re-suspended in elution buffer (lx PBS, 0.05% Tween 20, 0.5 μM non-biotinylated affinity ligand) and incubated at room temperature with shaking for 30 minutes. The kinase concentration in the eluates was measured by qPCR. An 11-point 3-fold serial dilution of each test compound was prepared in 100% DMSO at 100× final test concentration and subsequently diluted to 1× in the assay (final DMSO concentration=[…]). Most Kds were determined using a compound top concentration=30,000 nM.

G2019S LRRK2, sequence (Q5S007 whole entry G2019S): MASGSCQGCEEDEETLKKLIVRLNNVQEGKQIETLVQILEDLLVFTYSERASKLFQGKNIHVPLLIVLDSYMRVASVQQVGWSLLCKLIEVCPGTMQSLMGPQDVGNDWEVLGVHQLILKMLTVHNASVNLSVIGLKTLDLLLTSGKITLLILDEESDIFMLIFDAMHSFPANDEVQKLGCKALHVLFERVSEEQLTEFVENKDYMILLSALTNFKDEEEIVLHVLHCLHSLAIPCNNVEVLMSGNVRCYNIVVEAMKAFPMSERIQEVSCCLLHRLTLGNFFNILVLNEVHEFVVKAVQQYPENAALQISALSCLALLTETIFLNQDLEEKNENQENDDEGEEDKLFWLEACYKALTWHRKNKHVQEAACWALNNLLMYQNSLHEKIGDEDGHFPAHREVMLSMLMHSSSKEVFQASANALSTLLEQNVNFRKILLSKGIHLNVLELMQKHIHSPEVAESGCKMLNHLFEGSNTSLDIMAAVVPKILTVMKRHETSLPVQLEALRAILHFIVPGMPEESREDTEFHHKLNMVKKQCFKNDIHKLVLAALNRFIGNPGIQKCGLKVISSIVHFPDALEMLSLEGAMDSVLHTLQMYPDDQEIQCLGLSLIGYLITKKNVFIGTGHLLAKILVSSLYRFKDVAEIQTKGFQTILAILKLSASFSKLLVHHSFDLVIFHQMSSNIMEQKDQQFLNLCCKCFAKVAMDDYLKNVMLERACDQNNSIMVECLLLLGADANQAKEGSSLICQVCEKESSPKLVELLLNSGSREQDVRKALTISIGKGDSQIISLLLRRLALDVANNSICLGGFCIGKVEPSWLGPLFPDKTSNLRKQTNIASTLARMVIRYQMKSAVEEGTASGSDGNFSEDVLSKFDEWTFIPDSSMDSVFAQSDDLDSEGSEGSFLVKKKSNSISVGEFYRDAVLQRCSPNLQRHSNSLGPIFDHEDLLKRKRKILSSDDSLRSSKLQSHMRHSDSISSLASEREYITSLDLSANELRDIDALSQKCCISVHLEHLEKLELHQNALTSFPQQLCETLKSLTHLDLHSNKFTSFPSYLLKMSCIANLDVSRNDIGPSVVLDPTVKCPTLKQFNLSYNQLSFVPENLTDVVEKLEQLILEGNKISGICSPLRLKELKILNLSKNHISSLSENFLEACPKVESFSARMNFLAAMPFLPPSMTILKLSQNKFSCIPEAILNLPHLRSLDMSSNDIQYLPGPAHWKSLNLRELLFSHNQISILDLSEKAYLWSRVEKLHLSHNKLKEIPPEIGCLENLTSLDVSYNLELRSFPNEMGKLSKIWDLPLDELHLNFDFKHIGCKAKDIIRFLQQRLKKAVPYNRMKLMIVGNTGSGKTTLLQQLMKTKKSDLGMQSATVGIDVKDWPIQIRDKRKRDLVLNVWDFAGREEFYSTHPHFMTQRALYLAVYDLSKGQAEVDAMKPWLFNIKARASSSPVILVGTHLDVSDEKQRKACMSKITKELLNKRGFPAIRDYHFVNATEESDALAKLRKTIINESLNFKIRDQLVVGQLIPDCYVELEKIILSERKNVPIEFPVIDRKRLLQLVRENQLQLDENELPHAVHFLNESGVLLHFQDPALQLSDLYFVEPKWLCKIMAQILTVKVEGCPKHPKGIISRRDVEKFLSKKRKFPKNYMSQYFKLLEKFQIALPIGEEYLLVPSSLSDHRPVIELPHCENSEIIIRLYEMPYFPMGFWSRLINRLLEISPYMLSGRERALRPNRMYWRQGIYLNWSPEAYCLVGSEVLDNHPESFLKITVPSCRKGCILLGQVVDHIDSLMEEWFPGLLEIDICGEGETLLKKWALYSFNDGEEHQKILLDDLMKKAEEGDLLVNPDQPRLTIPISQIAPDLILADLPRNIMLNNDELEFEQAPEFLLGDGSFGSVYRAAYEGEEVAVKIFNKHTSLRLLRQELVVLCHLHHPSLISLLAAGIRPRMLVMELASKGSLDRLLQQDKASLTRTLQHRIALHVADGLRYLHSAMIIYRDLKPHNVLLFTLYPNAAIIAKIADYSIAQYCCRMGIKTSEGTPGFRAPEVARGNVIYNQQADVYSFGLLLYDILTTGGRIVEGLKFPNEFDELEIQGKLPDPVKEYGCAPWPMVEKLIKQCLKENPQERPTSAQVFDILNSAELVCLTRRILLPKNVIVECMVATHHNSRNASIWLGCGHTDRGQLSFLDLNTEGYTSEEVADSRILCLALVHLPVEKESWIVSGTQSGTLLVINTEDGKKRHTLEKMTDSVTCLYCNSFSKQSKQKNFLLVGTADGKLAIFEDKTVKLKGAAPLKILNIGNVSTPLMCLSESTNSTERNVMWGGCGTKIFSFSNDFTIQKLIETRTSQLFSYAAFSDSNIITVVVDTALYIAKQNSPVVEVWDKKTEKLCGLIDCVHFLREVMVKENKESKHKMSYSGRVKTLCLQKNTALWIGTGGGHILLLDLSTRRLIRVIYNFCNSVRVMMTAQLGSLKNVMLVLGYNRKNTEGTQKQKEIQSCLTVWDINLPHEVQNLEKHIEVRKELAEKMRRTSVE

SMILES | Kd
CC(C)Cc1ncc(/C=C2\C(=O)Nc3ccc(OC(C)C)cc32)[nH]1 [Compound 22, (3Z)-3-[(2-isobutyl-1H-imidazol-5-yl)methylene]-5-isopropoxy-indolin-2-one] | 32.5 nM
CC(C)Oc1ccc2c(n1)/C(=C/c1cnc(C3CCOCC3)[nH]1)C(=O)N2 [Compound 46, (3Z)-5-isopropoxy-3-[(2-tetrahydropyran-4-yl-1H-imidazol-5-yl)methylene]-1H-pyrrolo[3,2-b]pyridin-2-one] | 250 nM
CC(C)Oc1ccc2c(c1)/C(=C/c1cnc(CN3CCOCC3)[nH]1)C(=O)N2 [Compound 23, (3Z)-5-isopropoxy-3-[[2-(morpholinomethyl)-1H-imidazol-5-yl]methylene]indolin-2-one] | 420 nM
CCc1ccc2c(c1)/C(=C/c1cnc(C3CCOCC3)[nH]1)C(=O)N2 [Compound 29, (3Z)-5-ethyl-3-[(2-tetrahydropyran-4-yl-1H-imidazol-5-yl)methylene]indolin-2-one] | 54 nM
CC(C)Oc1ccc2c(c1)/C(=C/c1cnc(N(C)C)[nH]1)C(=O)N2 [Compound 35, (3Z)-3-[[2-(dimethylamino)-1H-imidazol-5-yl]methylene]-5-isopropoxy-indolin-2-one] | 32 nM
CC(C)Oc1cc2c(cc1F)NC(=O)/C2=C\c1cnc(C2CCN(CCF)CC2)[nH]1 [Compound 43, (3Z)-6-fluoro-3-[[2-[1-(2-fluoroethyl)-4-piperidyl]-1H-imidazol-5-yl]methylene]-5-isopropoxy-indolin-2-one] | 34 nM
COCCc1ncc(/C=C2\C(=O)Nc3ccc(OC)cc32)[nH]1 [Compound 24, (3Z)-5-methoxy-3-[[2-(2-methoxyethyl)-1H-imidazol-5-yl]methylene]indolin-2-one] | 450 nM
C/C(=C1/C(=O)Nc2cc(F)c(OC(C)C)cc21)c1cnc(N2CCOCC2)[nH]1 [Compound 42, (3Z)-6-fluoro-5-isopropoxy-3-[1-(2-morpholino-1H-imidazol-5-yl)ethylidene]indolin-2-one] | 57 nM
CC(C)Oc1cc2c(cn1)NC(=O)/C2=C\c1cnc(C2CCOCC2)[nH]1 [Compound 45, (3Z)-5-isopropoxy-3-[(2-tetrahydropyran-4-yl-1H-imidazol-5-yl)methylene]-1H-pyrrolo[2,3-c]pyridin-2-one] | 260 nM
C/C(=C1/C(=O)Nc2ccc(OC(C)C)cc21)c1cnc(N2CCOCC2)[nH]1 [Compound 40, (3Z)-5-isopropoxy-3-[1-(2-morpholino-1H-imidazol-5-yl)ethylidene]indolin-2-one] | 22 nM

Continued by falling Kd, values first:

Kd | SMILES
123 nM | CC(C)Oc1ccc2c(c1)/C(=C/c1ncc(C3CCOCC3)[nH]1)C(=O)N2 [Compound 39, (3Z)-5-isopropoxy-3-[(5-tetrahydropyran-4-yl-1H-imidazol-2-yl)methylene]indolin-2-one]
59 nM | O=C1Nc2ccc(Cl)cc2/C1=C/c1cnc(C2CCOCC2)[nH]1 [Compound 32, (3Z)-5-chloro-3-[(2-tetrahydropyran-4-yl-1H-imidazol-5-yl)methylene]indolin-2-one]
47.5 nM | O=C1Nc2ccc(OCCF)cc2/C1=C/c1cnc(C2CCOCC2)[nH]1 [Compound 34, (3Z)-5-(2-fluoroethoxy)-3-[(2-tetrahydropyran-4-yl-1H-imidazol-5-yl)methylene]indolin-2-one]
43 nM | CC(C)Oc1ccc2c(c1)/C(=C/c1cnc(C3CCN(CCF)CC3)[nH]1)C(=O)N2 [Compound 31, (3Z)-3-[[2-[1-(2-fluoroethyl)-4-piperidyl]-1H-imidazol-5-yl]methylene]-5-isopropoxy-indolin-2-one]
41 nM | CCN1CCN(c2ncc(/C=C3\C(=O)Nc4cc(F)c(OC(C)C)cc43)[nH]2)CC1 [Compound 44, (3Z)-3-[[2-(4-ethylpiperazin-1-yl)-1H-imidazol-5-yl]methylene]-6-fluoro-5-isopropoxy-indolin-2-one]
15.5 nM | CC(C)Oc1ccc2c(c1)/C(=C/c1cnc(N3CCOCC3)[nH]1)C(=O)N2 [Compound 27, (3Z)-5-isopropoxy-3-[(2-morpholino-1H-imidazol-5-yl)methylene]indolin-2-one]
